{
  "source": "patent US8846917B2",
  "about": "“Compounds useful as inhibitors of ATR kinase” (Vertex Pharmaceuticals Incorporated, priority 2011, dated 2014)",
  "target": "full-length ATR (Homo sapiens (Human), UniProt Q13535)",
  "sequence (Q13535 whole entry)": "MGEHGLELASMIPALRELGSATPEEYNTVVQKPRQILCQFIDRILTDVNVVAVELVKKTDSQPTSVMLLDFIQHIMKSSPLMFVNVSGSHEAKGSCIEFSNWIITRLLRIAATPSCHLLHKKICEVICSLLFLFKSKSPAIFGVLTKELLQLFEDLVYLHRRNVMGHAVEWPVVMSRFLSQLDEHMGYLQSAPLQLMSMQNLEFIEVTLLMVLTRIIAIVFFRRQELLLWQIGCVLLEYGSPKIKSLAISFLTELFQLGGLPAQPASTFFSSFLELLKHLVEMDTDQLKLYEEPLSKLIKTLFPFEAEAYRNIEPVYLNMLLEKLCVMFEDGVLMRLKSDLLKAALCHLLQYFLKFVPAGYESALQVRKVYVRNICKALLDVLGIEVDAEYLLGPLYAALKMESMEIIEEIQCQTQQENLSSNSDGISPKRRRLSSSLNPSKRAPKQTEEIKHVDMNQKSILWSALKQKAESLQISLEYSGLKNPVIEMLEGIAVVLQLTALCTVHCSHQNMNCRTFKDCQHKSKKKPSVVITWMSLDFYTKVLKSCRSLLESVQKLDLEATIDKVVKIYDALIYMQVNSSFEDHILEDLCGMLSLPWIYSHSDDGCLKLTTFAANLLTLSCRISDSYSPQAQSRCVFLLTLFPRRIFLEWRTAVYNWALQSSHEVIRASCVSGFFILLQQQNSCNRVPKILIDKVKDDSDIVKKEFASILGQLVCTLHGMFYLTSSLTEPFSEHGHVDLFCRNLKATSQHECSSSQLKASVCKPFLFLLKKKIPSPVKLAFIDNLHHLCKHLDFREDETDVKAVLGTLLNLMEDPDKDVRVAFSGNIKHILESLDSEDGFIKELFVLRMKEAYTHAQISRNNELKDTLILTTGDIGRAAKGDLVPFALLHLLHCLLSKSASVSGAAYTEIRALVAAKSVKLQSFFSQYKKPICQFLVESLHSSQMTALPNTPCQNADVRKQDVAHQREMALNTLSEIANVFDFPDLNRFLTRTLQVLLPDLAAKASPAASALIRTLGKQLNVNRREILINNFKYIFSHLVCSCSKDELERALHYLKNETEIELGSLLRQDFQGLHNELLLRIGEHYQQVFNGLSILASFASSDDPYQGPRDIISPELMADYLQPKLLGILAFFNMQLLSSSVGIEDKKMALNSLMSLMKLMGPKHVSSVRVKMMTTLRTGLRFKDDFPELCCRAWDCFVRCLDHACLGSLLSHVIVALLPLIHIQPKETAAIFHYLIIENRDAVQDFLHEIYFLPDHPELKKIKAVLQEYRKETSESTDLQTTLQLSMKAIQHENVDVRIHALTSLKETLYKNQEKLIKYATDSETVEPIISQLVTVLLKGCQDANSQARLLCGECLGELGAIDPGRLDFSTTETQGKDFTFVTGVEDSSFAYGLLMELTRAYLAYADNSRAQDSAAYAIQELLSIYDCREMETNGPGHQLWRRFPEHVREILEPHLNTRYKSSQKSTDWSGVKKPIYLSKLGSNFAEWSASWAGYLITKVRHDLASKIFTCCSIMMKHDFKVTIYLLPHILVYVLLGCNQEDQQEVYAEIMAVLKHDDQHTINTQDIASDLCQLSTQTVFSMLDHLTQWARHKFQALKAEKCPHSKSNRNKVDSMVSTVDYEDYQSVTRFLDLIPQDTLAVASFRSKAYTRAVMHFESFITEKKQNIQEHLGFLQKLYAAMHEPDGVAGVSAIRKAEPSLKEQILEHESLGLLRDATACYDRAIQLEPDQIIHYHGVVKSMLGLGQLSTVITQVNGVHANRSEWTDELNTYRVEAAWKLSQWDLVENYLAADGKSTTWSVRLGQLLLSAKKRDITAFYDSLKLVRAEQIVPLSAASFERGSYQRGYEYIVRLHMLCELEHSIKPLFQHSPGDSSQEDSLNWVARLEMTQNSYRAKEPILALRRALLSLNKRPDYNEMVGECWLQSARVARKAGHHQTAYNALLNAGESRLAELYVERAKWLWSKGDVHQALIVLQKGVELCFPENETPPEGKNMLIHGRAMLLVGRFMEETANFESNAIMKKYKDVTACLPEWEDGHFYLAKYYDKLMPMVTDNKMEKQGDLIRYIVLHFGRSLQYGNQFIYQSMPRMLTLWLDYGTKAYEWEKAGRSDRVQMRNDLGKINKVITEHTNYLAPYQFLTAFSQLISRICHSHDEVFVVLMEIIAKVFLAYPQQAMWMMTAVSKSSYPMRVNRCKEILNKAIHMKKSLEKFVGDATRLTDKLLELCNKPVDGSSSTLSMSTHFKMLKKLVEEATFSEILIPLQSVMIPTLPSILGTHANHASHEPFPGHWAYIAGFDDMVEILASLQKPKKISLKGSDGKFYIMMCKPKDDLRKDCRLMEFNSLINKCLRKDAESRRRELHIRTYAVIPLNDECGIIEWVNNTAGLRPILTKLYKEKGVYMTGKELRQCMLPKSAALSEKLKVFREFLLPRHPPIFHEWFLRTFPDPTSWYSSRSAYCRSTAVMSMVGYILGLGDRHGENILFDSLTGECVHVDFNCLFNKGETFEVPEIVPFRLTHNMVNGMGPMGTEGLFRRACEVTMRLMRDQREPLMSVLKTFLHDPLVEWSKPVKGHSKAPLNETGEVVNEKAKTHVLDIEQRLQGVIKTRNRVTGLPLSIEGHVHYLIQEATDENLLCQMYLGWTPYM",
  "test": "ATR Inhibition Assay (radioactive-phosphate incorporation)",
  "type": "biochemical",
  "details": "Ki(app); 10 μM ATP, 800 μM target peptide, 5 nM full-length ATR, 25° C.",
  "experimental": "Compounds were screened for their ability to inhibit ATR kinase using a radioactive-phosphate incorporation assay. Assays were carried out in a mixture of 50 mM Tris/HCl (pH 7.5), 10 mM MgCl2 and 1 mM DTT. […] Assays were carried out at 25° C. in the presence of 5 nM full-length ATR. An assay stock buffer solution was prepared containing all of the reagents listed above, with the exception of ATP and the test compound of interest. […] The plate was pre-incubated for 10 minutes at 25° C. and the reaction initiated by addition of 15 μL [γ-33P]ATP (final concentration 10 μM). The reaction was stopped after 24 hours by the addition of 30 μL 0.1M phosphoric acid containing 2 mM ATP. A multiscreen phosphocellulose filter 96-well plate (Millipore, Cat no. MAPHN0B50) was pretreated with 100 μL 0.2M phosphoric acid prior to the addition of 45 μL of the stopped assay mixture. The plate was washed with 5×200 μL 0.2M phosphoric acid. After drying, 100 μL Optiphase ‘SuperMix’ liquid scintillation cocktail (Perkin Elmer) was added to the well prior to scintillation counting (1450 Microbeta Liquid Scintillation Counter, Wallac). After removing mean background values for all of the data points, Ki(app) data were calculated from non-linear regression analysis of the initial rate data using the Prism software package (GraphPad Prism version 3.0cx for Macintosh, GraphPad Software, San Diego Calif., USA).",
  "data": [
    {"smiles": "CC(C)S(=O)(=O)c1ccc(-c2cnc(N)c(-c3cn(-c4ccccc4)nn3)n2)cc1", "note": "[Compound I-1, 5-(4-(isopropylsulfonyl)phenyl)-3-(1-phenyl-1H-1,2,3-triazol-4-yl)pyrazin-2-amine]", "values": [
      {"measurement": "Ki", "value": 6, "unit": "nM"}
    ]}
  ]
}
